These results are taken from patent US12291502B2, “Topoisomerase II-alpha inhibitors and methods of treating cancer using the same” (The Regents of the University of Colorado, priority 2019, dated 2025).

As usually defined, the inhibition is the percentage by which the read-out fell short of the control. By IC50 is commonly meant the concentration that gives 50% inhibition. As a reminder, the EC50 is the concentration at which the effect is half-maximal.

Like-named read-outs stand apart in the source and are kept apart here.

The target of one assay is T1, Human TOP2A (Homo sapiens, UniProt P11388).
T1 construct: purchased TopoGEN (Buena Vista, CO)
T1 sequence (P11388 whole entry): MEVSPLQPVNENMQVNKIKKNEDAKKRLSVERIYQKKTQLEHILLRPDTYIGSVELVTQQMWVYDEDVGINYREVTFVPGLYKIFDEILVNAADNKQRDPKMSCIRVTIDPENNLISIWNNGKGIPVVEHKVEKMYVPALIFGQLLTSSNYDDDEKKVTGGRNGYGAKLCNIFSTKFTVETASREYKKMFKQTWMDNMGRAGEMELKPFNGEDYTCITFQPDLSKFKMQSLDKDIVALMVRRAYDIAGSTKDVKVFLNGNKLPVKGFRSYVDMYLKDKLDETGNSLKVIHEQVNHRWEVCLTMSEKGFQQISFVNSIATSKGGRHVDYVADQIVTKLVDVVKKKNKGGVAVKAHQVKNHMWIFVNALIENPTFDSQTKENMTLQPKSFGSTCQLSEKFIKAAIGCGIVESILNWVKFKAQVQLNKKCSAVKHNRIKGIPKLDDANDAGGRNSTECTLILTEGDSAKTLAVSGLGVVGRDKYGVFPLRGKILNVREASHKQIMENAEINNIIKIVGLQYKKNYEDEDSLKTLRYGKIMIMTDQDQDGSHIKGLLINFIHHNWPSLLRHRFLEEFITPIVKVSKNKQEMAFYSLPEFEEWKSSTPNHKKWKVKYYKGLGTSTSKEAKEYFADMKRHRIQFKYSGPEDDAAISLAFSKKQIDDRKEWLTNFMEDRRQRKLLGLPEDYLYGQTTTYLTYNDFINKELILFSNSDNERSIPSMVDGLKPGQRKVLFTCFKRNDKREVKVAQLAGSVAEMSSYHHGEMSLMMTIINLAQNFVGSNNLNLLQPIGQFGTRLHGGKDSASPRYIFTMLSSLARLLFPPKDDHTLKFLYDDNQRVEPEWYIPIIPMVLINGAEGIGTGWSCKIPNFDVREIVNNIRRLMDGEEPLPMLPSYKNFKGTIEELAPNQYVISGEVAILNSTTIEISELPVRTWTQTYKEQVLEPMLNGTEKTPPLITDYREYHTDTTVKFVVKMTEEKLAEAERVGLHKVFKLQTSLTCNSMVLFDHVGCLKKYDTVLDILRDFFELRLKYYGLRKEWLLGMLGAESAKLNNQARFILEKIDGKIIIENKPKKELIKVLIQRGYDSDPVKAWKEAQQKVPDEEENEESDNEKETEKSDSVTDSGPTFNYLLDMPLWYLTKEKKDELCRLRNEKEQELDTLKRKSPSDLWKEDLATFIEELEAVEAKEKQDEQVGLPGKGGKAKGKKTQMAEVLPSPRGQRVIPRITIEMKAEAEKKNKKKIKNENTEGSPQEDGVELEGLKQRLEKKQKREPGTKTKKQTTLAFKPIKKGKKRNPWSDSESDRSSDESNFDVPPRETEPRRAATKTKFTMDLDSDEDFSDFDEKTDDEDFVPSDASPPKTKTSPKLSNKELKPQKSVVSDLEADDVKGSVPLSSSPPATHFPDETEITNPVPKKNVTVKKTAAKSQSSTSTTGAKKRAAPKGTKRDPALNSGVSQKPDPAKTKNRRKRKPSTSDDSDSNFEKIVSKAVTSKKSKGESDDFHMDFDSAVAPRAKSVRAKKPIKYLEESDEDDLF
As to the kind of experiment: TOP2A DNA decatenation assay (kDNA, agarose gel). The format is biochemical. Conditions: for TOP2A inhibition, result in words: decatenation screen at 30 μM. The method, then: Inhibition of TOP2A activity. Human TOP2A, kDNA, and assay buffers were obtained from TopoGEN (Buena Vista, CO). The synthesized compounds were screened for their TOP2A inhibitory activity by the intensity of DNA decatenation bands on a DNA gel when compared to the vehicle. Compounds were initially incubated with TOP2A (3 U/reaction) for 20 min at a 30 μM and 1.2% DMSO concentration in a 37° C. incubator without CO2.
The decatenation reaction was initiated immediately after by adding 2 mM ATP and 35 ng/reaction of kDNA, then incubated for 1 hour in a 37° C. water bath. The samples were loaded into a 0.8% agarose gel in 1× Tris-Borate-EDTA (TBE) at a 0.2 μg/mL ethidium bromide concentration and allowed to run in an electrophoretic chamber for 1 hour at 100V. Compounds with the highest inhibitory activity were selected for 2-fold serial dilution dose-response assays (58.6 nM-30 μM). The dose-response assays followed the same protocol with the exception of 4 U/reaction of TOP2A.
Inhibition studies of TOP2A and observed structure activity relationships (SAR). DNA catenation/decatenation or linking/unlinking of DNA is one of the main TOP2A functions essential for regulating DNA topology, and this is ATP dependent. […] Thus, as a starting point, the synthesized analogs were screened against TOP2A-dependent decatenation using 30 μM fixed concentrations, and the DNA from reactions were resolved on 0.8% agarose gels containing ethidium bromide.
Moreover, these studies provided interesting SAR, which shed light on the potential lead drug target binding interactions and affinity, biological activity, and future drug design optimization with this unique class of TOP2A inhibitors.
(§1) TOP2A decatenation assay. Human TOP2A, kDNA, and assay buffers were obtained from TopoGEN (Buena Vista, CO). The synthesized compounds were screened for their TOP2A inhibitory activity by the intensity of DNA decatenation bands on a DNA gel when compared to the vehicle. Compounds were initially incubated with TOP2A (3 U/reaction) for 20 min at a 30 μM and 1.2% DMSO concentration in a 37° C. incubator without CO2. The decatenation reaction was initiated immediately after by adding 2 mM ATP and 35 ng/reaction of kDNA, then incubated for 1 h in a 37° C. water bath. The samples were loaded into a 0.8% agarose gel in 1× Tris-Borate-EDTA (TBE) at a 0.2 μg/mL ethidium bromide concentration and allowed to run in an electrophoretic chamber for 1 h at 100V. Compounds with the highest inhibitory activity were selected for 2-fold serial dilution dose-response assays (58.6 nM-30 μM). The dose-response assays followed the same protocol with the exception of 4 U/reaction of TOP2A,
as §1, with “assays (53.6” for “assays (58.6”, “of TOP2A.” for “of TOP2A,”

Assay [1] concerns vimentin promoter activity (VimPro-GFP) in SW620 cells. As to the kind of experiment: VimPro-GFP EMT reporter assay. The conditions noted are these: Homo sapiens, SW-620, read-out: Vimentin Down-regulation EC50 (μM).
Experimental: VimPro-GFP and EcadPro-mCherry reporter assays. VimPiro-GFP: SW620 cells were first transduced with NucLight Red virus (Essen BioSciences) and selected with Zeocin at 200 μg/mL, and then transduced with pCDH-VimPro-GFP-EF1-puro virus and selected with puromycin at 4 μg/mL. The dual fluorescently labeled cells were plated and treated in 3D tumor organoid as described. Tumor organoid images were recorded every 2 hours over a 72 hours period using an incucyte ZOOM content imaging system (Essen BioSciences) or PerkinElmer Phenix imager (PerkinElmer).
Analogs were also assessed for their ability to modulate or reverse EMT using VimPro-GFP and EcadPro-RFP SW620 reporter cells cultured as tumor organoids, determining EC50 dose responses over 72 hours (Table 2).
VimPro-GFP and EcadPro-RFP reporter assays. Stable VimPro-GFP or EcadPro-RFP SW620 reporter cells were generated using pCDH-VimPro-GFP-EF1-puro virus or pCDH-EcadPro-mCherry-EF1-puro virus as previously reported. […] Transduced cells were selected with puromycin at 2 μg/mL. The stable fluorescent labeled reporter cells were then used to generate tumor organoids as described. Tumor organoids were then treated with TOP2A inhibitors at 10 μM for an additional 72 h. Following treatment, tumor organoids were stained with 16 μM of Hoechst 33342 for 1 h, which functions as a nuclear stain for imaging segmentation. Images were taken with a 5× air objective. Z stacks were set at 20 μm apart for a total of 7 layers. Imaging analysis was performed using an Opera Phenix high content screening (HCS) system and Harmony high-content imaging and analysis software interface (PerkinElmer, MA). Nuclei were identified with Hoechst 33342 stain within each layer, and cells were found with either GFP or mCherry channel. The intensities of each fluorescence channel within the cells were calculated and thresholds were set based on the background intensities. Percentages of GFP or mCherry positive cells were calculated and normalized to the DMSO treated group.
VimPro-GFP and EcadPro-RFP reporter assays. Stable VimPro-GFP or EcadPro-RFP SW620 reporter cells were generated using pCDH-VimPro-GFP-EF1-puro virus or pCDH-EcadPro-mCherry-EF1-puro virus as previously reported. […] Transduced cells were selected with puromycin at 2 μg/mL. The stable fluorescent labeled reporter cells were then used to generate tumor organoids as described. Tumor organoids were then treated with TOP2A inhibitors at 10 μM for an additional 72 h. Following treatment, tumor organoids were stained with 16 μM of Hoechst 33342 for 1 h, which functions as a nuclear stain for imaging segmentation. Images were taken with a 5× air objective.
Assay [2] concerns E-cadherin promoter activity (EcadPro-RFP) in SW620 cells. As to the kind of experiment: EcadPro-RFP (mCherry) EMT reporter assay. Conditions: Homo sapiens, SW-620; Table 3; SW620 Cells; read-out: E-cadherin Up-regulation EC50. It counts as cell-based.
Text: (§2) VimPro-GFP and EcadPro-RFP reporter assays. […] 35(38): p. 4990-9.]
as §2

Where [3] appears, read: Table 1, decatenation, 30 μM fixed concentration.
The mark [4] stands for this setting: Table 3, 30 μM, read-out: % TOP2A Decatenation inhibition (30 μM).
Setting [5] is: Table 3, read-out: TOP2A Inhibition IC50.
[6] abbreviates: 1 h, Table 1, decatenation, 30 μM fixed concentration, read-out: % Inhibition TOP2A (30 μM).
[7] abbreviates: Table 1, decatenation dose response, read-out: % Inhibition TOP2A (IC50 Values).

Take `CC(=O)Nc1ccc2c(-c3cc(Cl)ccc3O)ccnc2c1O` [Analog 38]: the “% Inhibition TOP2A (30 μM)” value on Human TOP2A (setting [3]) was found to be 0.0%. The “TOP2A inhibition, result in words” value at Human TOP2A is recorded as “no activity was observed”.
Take `CC(=O)Nc1ccc2c(NC3CCCCC3)ccnc2c1O` [AA-29-216]: the inhibition at 30 µM at Human TOP2A (setting [4]) came out at 100%. Also, the IC50 at Human TOP2A (setting [5]) was 0.29 µM. The EC50 in assay [1] stood at 20.6 µM; in assay [2] it was 17.8 µM.
Consider `CC(C)(C)C(=O)Nc1ccc2c(-c3cc(F)ccc3O)ccnc2c1O` [Analog 40], for which the “% Inhibition TOP2A (30 μM)” value at Human TOP2A (setting [3]) came to 0.0%.
`CC(=O)Nc1ccc2c(Nc3cccc4[nH]ccc34)ccnc2c1O` [AA-29-147]: the results for the EC50 in assay [1] and in assay [2] were 14.8 µM and 146 µM, respectively.
For `CC(=O)Nc1ccc2c(Nc3ccc(O)cc3F)ccnc2c1O` [AA-29-172], the figures for the EC50 in assay [1] and in assay [2] were 45.9 µM and 58.5 µM, respectively.
With `CC(=O)Nc1ccc2c(-c3ccc(C(F)(F)F)cc3)ccnc2c1O` [Analog 32], the inhibition at 30 µM at Human TOP2A (setting [6]) was found to be 97%. Further, at Human TOP2A (setting [7]), the IC50 came out at 0.7 µM. In addition, the “TOP2A inhibition, result in words” value on Human TOP2A is given as “excellent inhibitory activity”.
Turning to `CC(=O)Nc1ccc2c(-c3cccc(C(F)(F)F)c3)ccnc2c1O` [Analog 31], on Human TOP2A (setting [7]), the IC50 was determined as 3.4 µM. For the same molecule, on Human TOP2A (setting [3]), the “% Inhibition TOP2A (30 μM)” value is given as 97.0%. Further, the “TOP2A inhibition, result in words” value at Human TOP2A is “excellent inhibitory activity”.
In the case of `CC(=O)Nc1ccc2c(-c3ccsc3)ccnc2c1O` [Analog 58], the inhibition at 30 µM on Human TOP2A (setting [6]) was 92%. At Human TOP2A (setting [7]), the IC50 turned out to be 5 µM. For the same molecule, on Human TOP2A, the “TOP2A inhibition, result in words” value was “improves activity compared to the 3-furanyl analog 56”.
As for `CC(=O)Nc1ccc2c(-c3cc(C(F)(F)F)ccc3O)ccnc2c1O` [Analog 37], the inhibition at 30 µM at Human TOP2A (setting [6]) stood at 100%. At Human TOP2A (setting [7]), the IC50 stood at 9 µM. For the same molecule, the “TOP2A inhibition, result in words” value on Human TOP2A is listed as “excellent inhibitory activity”.
For `O=C(CN1CCOCC1)Nc1ccc2c(NC3CCCCC3)ccnc2c1O` [AA-34-171], the inhibition at 30 µM at Human TOP2A (setting [4]) came out at 62%. For the same molecule, the EC50 was 17.5 µM in assay [1] and 48.2 µM in assay [2].
In the case of `CC(=O)Nc1ccc2c(-c3cccc(O)c3)ccnc2c1O` [Analog 33], the “% Inhibition TOP2A (30 μM)” value on Human TOP2A (setting [3]) is reported as 0.0%.
For `CC(=O)Nc1ccc2c(NC3CCCCCC3)ccnc2c1O` [AA-34-130], the inhibition at 30 µM on Human TOP2A (setting [4]) turned out to be 100%. On Human TOP2A (setting [5]), the IC50 was determined as 1.53 µM. Further, the EC50 in assay [1] turned out to be 59 µM; in assay [2], 36.5 µM.
As for `CC(=O)Nc1ccccc1-c1ccnc2c(O)c(NC(C)=O)ccc12` [Analog 34], the “% Inhibition TOP2A (30 μM)” value on Human TOP2A (setting [3]) is 1.0%. At Human TOP2A, the “TOP2A inhibition, result in words” value is “significant loss of activity”.
The like results for `CC(=O)Nc1ccc2c(-c3ccc(F)cc3)ccnc2c1O` [Analog 30] were, in that order, 1.0% and “the activity is lost”.
With `CC(=O)Nc1ccc2c(Nc3cc(O)ccc3F)ccnc2c1O` [AA-29-171], the results for the EC50 in assay [1] and in assay [2] were 26.6 µM and 139 µM, respectively.
As for `O=C(CN1CCOCC1)Nc1ccc2c(-c3cc4ccccc4o3)ccnc2c1O` [Analog 60], at Human TOP2A (setting [6]), the inhibition at 30 µM came to 100%. On Human TOP2A (setting [7]), the IC50 worked out at 5 µM.
`CC(=O)Nc1ccccc1-c1ccnc2c(O)c(NC(=O)CCN3CCOCC3)ccc12` [Analog 43]: the “% Inhibition TOP2A (30 μM)” value at Human TOP2A (setting [3]) is given as 1.0%.
As to `CC(=O)Nc1ccc2c(Nc3ccc4[nH]c(C)cc4c3)ccnc2c1O` [AA-29-155], the EC50 in assay [1] is 9.56 µM; in assay [2] it was 128 µM.
On to `CC(=O)Nc1ccc2c(-c3cccc(F)c3)ccnc2c1O` [Analog 29], for which, at Human TOP2A (setting [6]), the inhibition at 30 µM worked out at 100%. Besides, at Human TOP2A (setting [7]), the IC50 is 7.8 µM. The “TOP2A inhibition, result in words” value at Human TOP2A is recorded as “potent inhibition of TOP2A activity”.
Consider `CC(=O)Nc1cccc(-c2ccnc3c(O)c(NC(C)=O)ccc23)c1` [Analog 36], for which, on Human TOP2A (setting [3]), the “% Inhibition TOP2A (30 μM)” value is recorded as 3.0%. Moreover, the “TOP2A inhibition, result in words” value on Human TOP2A is on record as “significant loss of activity”.
Regarding `CC(=O)Nc1ccc2c(-c3cc4ccccc4s3)ccnc2c1O` [Analog 54], the “% Inhibition TOP2A (30 μM)” value at Human TOP2A (setting [3]) was determined as 0.0%. In addition, on Human TOP2A, the “TOP2A inhibition, result in words” value is listed as “inhibition was lost”.
Regarding `CC(=O)Nc1ccc2c(Nc3cccc(C(F)(F)F)c3)ccnc2c1O` [AA-29-157], the EC50 in assay [1] was 29.9 µM; in assay [2], 180 µM.
For `CC(=O)Nc1ccc2c(Nc3ccc4[nH]ccc4c3)ccnc2c1O` [AA-29-136], at Human TOP2A (setting [4]), the inhibition at 30 µM came to 90%. The EC50 in assay [1] worked out at 4.1 µM; in assay [2] it was 8.4 µM.
For `CC(=O)Nc1ccc2c(Nc3cccc(F)c3)ccnc2c1O` [AA-29-146], the inhibition at 30 µM at Human TOP2A (setting [4]) amounted to 100%. The values for the EC50 in assay [1] and in assay [2] were 7.4 µM and 9.7 µM, respectively.
With `CC(=O)Nc1ccc2c(-c3ccco3)ccnc2c1O` [Analog 55], at Human TOP2A (setting [3]), the “% Inhibition TOP2A (30 μM)” value worked out at 0.0%. Moreover, at Human TOP2A, the “TOP2A inhibition, result in words” value was “significant loss of activity”.
With `CC(=O)Nc1ccc2c(-c3ccccc3)ccnc2c1O` [Analog 28], on Human TOP2A (setting [3]), the “% Inhibition TOP2A (30 μM)” value was determined as 25.0%.
On to `CC(=O)Nc1ccc2c(Nc3ccc(C(F)(F)F)cc3)ccnc2c1O` [AA-29-158], for which the results for the EC50 in assay [1] and in assay [2] were 1.36 µM and 65.1 µM, respectively.
Take `CC(=O)Nc1ccc2c(NC3CCC3)ccnc2c1O` [AA-34-132]: the inhibition at 30 µM on Human TOP2A (setting [4]) is 94%. The IC50 on Human TOP2A (setting [5]) stood at 6.56 µM. Moreover, the EC50 was 27.7 µM in assay [1] and 100 µM in assay [2].
Regarding `COc1ccc(F)cc1-c1ccnc2c(OC)c(NC(C)=O)ccc12` [Analog 6], the “% Inhibition TOP2A (30 μM)” value at Human TOP2A (setting [3]) is 0.0%.
On to `CC(=O)Nc1ccc2c(NC3CCCC3)ccnc2c1O` [AA-34-131], for which the inhibition at 30 µM at Human TOP2A (setting [4]) is 92%. Also, at Human TOP2A (setting [5]), the IC50 worked out at 2.16 µM. Also, the figures for the EC50 in assay [1] and in assay [2] were 23 µM and 21.3 µM, respectively.
In the case of `CC(=O)Nc1ccc2c(-c3cncnc3)ccnc2c1O` [Analog 59], the “% Inhibition TOP2A (30 μM)” value on Human TOP2A (setting [3]) turned out to be 0.0%.
For the molecule `CC(=O)Nc1ccc2c(Nc3ccccc3)ccnc2c1O` [AA-29-148], the inhibition at 30 µM at Human TOP2A (setting [4]) amounted to 100%. In addition, the results for the EC50 in assay [1] and in assay [2] were 25.9 µM and 7.6 µM, respectively.
For the molecule `O=C(CCN1CCOCC1)Nc1ccc2c(NC3CCCCC3)ccnc2c1O` [AA-34-180], the inhibition at 30 µM on Human TOP2A (setting [4]) is 0%. For the same molecule, the EC50 in assay [1] amounted to 13 µM; in assay [2], 65.5 µM.
